Experimental data: US9156811B2 (priority 2008, dated 2015)

test system: Trypanosome (T. brucei brucei); assay: In-vitro antitrypanosomal efficacy assay (cell growth, resazurin); assay type: cell-based; conditions: T. brucei cell growth
Experimental: To column 12, 200 μl media was added to provide a no cells control. Plates were then incubated at 37° C. in an atmosphere of 5% CO2 for 69 hours, before the addition of 20 μl of 500 μM rezasurin solution, and a further incubation period of 4 hours. […] Concentration effect curves were fitted using non-linear regression using XLFit 4.2 and EC50 values determined.

In order of rising “ED50 (μM) T. brucei” value:
1. Cc1nn(C)c(C)c1N[S+](=O)([O-])c1c(Cl)cc(CCCC2CCN(C)CC2)cc1Cl [DDD88557]  0.002 µM
2. CCN(c1c(C)nn(C)c1C)[S+](=O)([O-])c1c(Cl)cc(-c2ccnc(N3CCNCC3)c2)cc1Cl [DDD88646]  0.002 µM
3. Cc1nn(C)c(C)c1N(C)[S+](=O)([O-])c1c(Cl)cc(CCCC2CCNCC2)cc1Cl [DDD90022]  0.002 µM
4. Cc1nn(C)c(C)c1N(C)[S+](=O)([O-])c1c(Cl)cc(CCCC2CCN(C)CC2)cc1Cl [DDD90146]  0.002 µM
5. Cc1nn(C)c(C)c1N(C)[S+](=O)([O-])c1c(Cl)cc(-c2ccnc(N3CCNCC3)c2)cc1Cl [DDD88193, 2,6-Dichloro-N-methyl-4-(2-piperazin-1-yl-pyridin-4-yl)-N-(1,3,5-trimethyl-1H-pyrazol-4-yl)-benzenesulfonamide]  0.005 µM
6. Cc1nn(C)c(C)c1N(CC(F)F)[S+](=O)([O-])c1ccc(-c2ccnc(N3CCNCC3)c2)cc1 [DDD90111]  0.005 µM
7. Cc1nn(C)c(C)c1N(C)[S+](=O)([O-])c1c(Cl)cc(CCCN2CCN(C)CC2)cc1Cl [DDD88644]  0.012 µM
8. Cc1nn(C)c(C)c1N(C)[S+](=O)([O-])c1c(Cl)cc(-c2cccc(CN3CCN(C)CC3)c2)cc1Cl [DDD90118]  0.015 µM
9. Cc1nn(C)c(C)c1N(CC(F)(F)F)[S+](=O)([O-])c1ccc(-c2ccnc(N3CCNCC3)c2)cc1 [DDD88645]  0.021 µM
10. CCN(c1c(C)nn(C)c1C)[S+](=O)([O-])c1c(Cl)cc(CCCN2CCN(C)CC2)cc1Cl [DDD90154]  0.023 µM
11. Cc1c(N[S+](=O)([O-])c2ccc(CCCC3CCNCC3)cc2)c(CC(C)C)nn1C [DDD90144]  0.034 µM
12. Cc1nn(C)c(C)c1N[S+](=O)([O-])c1ccc(CCCC2CCN(C)CC2)cc1 [DDD88559]  0.038 µM
13. Cc1nn(C)c(C)c1N(C)[S+](=O)([O-])c1ccc(-c2cccc(CN3CCN(C)CC3)c2)cc1 [DDD88196, 3′-(4-Methyl-piperazin-1-ylmethyl)-biphenyl-4-sulfonic acid methyl-(1,3,5-trimethyl-1H-pyrazol-4-yl)-amide]  0.05 µM
14. Cc1c(N[S+](=O)([O-])c2ccc(-c3cccc(CN4CCCC4)c3)cc2)c(CC(C)C)nn1C [DDD99739]  0.058 µM
15. Cc1nn(C)c(C)c1N(C)[S+](=O)([O-])c1ccc(-c2cccc(CC3CCNCC3)c2)cc1 [DDD90098]  0.060 µM
16. Cc1nn(C)c(C)c1N(C)[S+](=O)([O-])c1ccc(-c2cccc(CC3CCN(C)CC3)c2)cc1 [DDD90091]  0.063 µM
17. Cc1nn(C)c(C)c1N[S+](=O)([O-])c1ccc(-c2cccc(CN(C)C)c2)cc1 [DDD88005, 3′-Dimethylaminomethyl-biphenyl-4-sulfonic acid (1,3,5-trimethyl-1H-pyrazol-4-yl)-amide]  0.1 µM
18. Cc1nn(C)c(C)c1N[S+](=O)([O-])c1c(Cl)cc(-c2cccc(CN3CCCC3)c2)cc1Cl [DDD88009, 3,5-Dichloro-3′-pyrrolidin-1-ylmethyl-biphenyl-4-sulfonic acid (1,3,5-trimethyl-1H-pyrazol-4-yl)-amide]  0.10 µM
19. Cc1nn(C)c(C)c1N[S+](=O)([O-])c1ccc(-c2ccnc(N3CCNC(C(C)C)C3)c2)cc1 (centres unmarked) [DDD88549]  0.11 µM
20. Cc1c(N(C)[S+](=O)([O-])c2ccc(CCCC3CCN(C)CC3)cc2)c(CC(C)C)nn1C [DDD90142]  0.168 µM
21. Cc1nn(C)c(C)c1N(C)[S+](=O)([O-])c1ccc(CCCC2CCN(C)CC2)cc1 [DDD90023]  0.20 µM
22. Cc1nn(C)c(C)c1N(C)[S+](=O)([O-])c1ccc(CCCC2CCNCC2)cc1 [DDD90112]  0.270 µM
23. CCN(CC)Cc1cccc(-c2cc(Cl)c([S+](=O)([O-])N(C)c3c(C)nn(C)c3C)c(Cl)c2)c1 [DDD88641]  0.31 µM
24. CCN(CC)Cc1cccc(-c2ccc([S+](=O)([O-])N(C)c3c(CC(C)C)nn(C)c3C)cc2)c1 [DDD88643]  0.49 µM
25. Cc1nn(C)c(C)c1N[S+](=O)([O-])c1ccc(CCCN2CCN(C)CC2)cc1 [DDD88191, 4-[3-(4-Methyl-piperazin-1-yl)-propyl]-N-(1,3,5-trimethyl-1H-pyrazol-4-yl)-benzenesulfonamide]  0.67 µM
26. Cc1nn(C)c(C)c1N(CC(F)(F)F)[S+](=O)([O-])c1ccc(-c2cccc(CN3CCN(C)CC3)c2)cc1 [DDD90057]  0.73 µM
27. Cc1nn(C)c(C)c1N[S+](=O)([O-])c1ccc(NCCC2CCN(C)CC2)nc1 [DDD88000, 6-[2-(1-Methyl-piperidin-4-yl)-ethylamino]-pyridine-3-sulfonic acid (1,3,5-trimethyl-1H-pyrazol-4-yl)-amide]  0.77 µM
28. Cc1nn(C)c(C)c1N(C)[S+](=O)([O-])c1ccc(CCCCCN(C)C)cc1 [DDD90145]  1.00 µM
29. Cc1nn(C)c(C)c1N[S+](=O)([O-])c1ccc(CCCN2CCNCC2)cc1 [DDD88580]  1.13 µM
30. Cc1ncccc1N[S+](=O)([O-])c1ccc(-c2cccc(C3CCNCC3)c2)cc1 [DDD88003, 3′-Piperidin-4-yl-biphenyl-4-sulfonic acid (2-methyl-pyridin-3-yl)-amide]  1.9 µM
31. Cc1nn(C)c(C)c1N[S+](=O)([O-])c1ccc(-c2cc(CN3CCN(C)CC3)cc(OC(C)C)c2)cc1 [DDD88194, 3′-Isopropoxy-5′-(4-methyl-piperazin-1-ylmethyl)-biphenyl-4-sulfonic acid (1,3,5-trimethyl-1H-pyrazol-4-yl)-amide]  2.0 µM
32. CCCOc1cc(CN2CCN(C)CC2)cc(-c2ccc([S+](=O)([O-])Nc3c(C)nn(C)c3C)cc2)c1 [DDD88187, 5′-(4-Methyl-piperazin-1-ylmethyl)-3′-propoxy-biphenyl-4-sulfonic acid (1,3,5-trimethyl-1H-pyrazol-4-yl)-amide]  2.15 µM
33. Cc1c(N[S+](=O)([O-])c2c(Cl)cc(Br)cc2Cl)c(CC(C)C)nn1C [DDD88198, 4-Bromo-2,6-dichloro-N-(3-isobutyl-1,5-dimethyl-1H-pyrazol-4-yl)-benzenesulfonamide]  2.3 µM
34. Cc1nn(C)c(CC(C)C)c1N[S+](=O)([O-])c1c(Cl)cc(Br)cc1Cl [DDD88197, 4-Bromo-2,6-dichloro-N-(5-isobutyl-1,3-dimethyl-1H-pyrazol-4-yl)-benzenesulfonamide]  45.9 µM

`Cc1nn(C)c(C)c1N[S+](=O)([O-])c1cc(F)c(Br)cc1F` [DDD88004, 4-Bromo-3,6-difluoro-N-(1,3,5-trimethyl-1H-pyrazol-4-yl)-benzenesulfonamide] was tested, and the “ED50 (μM) T. brucei” value was over 1 µM.
`Cc1noc(C)c1N[S+](=O)([O-])c1ccc(-c2cccc(C3CCNCC3)c2)cc1` [DDD88189, 3′-Piperidin-4-yl-biphenyl-4-sulfonic acid (3,5-dimethyl-isoxazol-4-yl)-amide] was tested, and the “ED50 (μM) T. brucei” value was over 1 µM.
In the case of `Cc1nn(C)c(C)c1N[S+](=O)([O-])c1c(F)cc(Br)cc1F` [DDD88317], the “ED50 (μM) T. brucei” value is reported as over 10 µM.
In the case of `Cc1nn(C)c(C)c1N[S+](=O)([O-])c1ccc2nc(Cl)ccc2c1` [DDD88533], the “ED50 (μM) T. brucei” value is reported as over 10 µM.
